Source: patent US20180099931A1 (AbbVie S.à.r.l., priority 2016, published 2018)
Like-named read-outs stand apart in the source and are kept apart here.

Biological target: T1, F508delCFTR (Homo sapiens, UniProt P13569, DEL508-508)
T1 construct: expressed in transfected cells; host or cells: CFBE41o- human lung-derived epithelial cells (CFBE4lo-F508delCFTR-HRP), doxycycline-inducible
Assay: Cell Surface Expression-Horse Radish Peroxidase (CSE-HRP) Assay;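 on Maximum % activity (with co-corrector): co-corrector and positive control are both the same reference corrector at 2 µM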;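 on Maximum % activity (without co-corrector): percent of the 2 µM on-plate positive control corrector response above DMSO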
Type: cell-based
Conditions: for Maximum % activity (with co-corrector) / Emax: maximum at any tested concentration, normalized to on-plate positive control; for Emax: read-out: Maximum % activity (without co-corrector)

[1] = test compound without co-corrector, read-out: EC50 (without co-corrector)
[2] = with co-corrector (2 μM of 3-[(2R,4R)-4-({[1-(2,2-difluoro-1,3-benzodioxol-5-yl)cyclopropyl]carbonyl}amino)-7-methoxy-3,4-dihydro-2H-chromen-2-yl]benzoic acid), read-out: EC50 (with co-corrector)
[3] = test compound without co-corrector
[4] = with co-corrector (2 μM of 3-[(2R,4R)-4-({[1-(2,2-difluoro-1,3-benzodioxol-5-yl)cyclopropyl]carbonyl}amino)-7-methoxy-3,4-dihydro-2H-chromen-2-yl]benzoic acid)
[5] = CSE-HRP, test compound without co-corrector, read-out: EC50 (without co-corrector)
[6] = CSE-HRP, with co-corrector (2 μM of 3-[(2R,4R)-4-({[1-(2,2-difluoro-1,3-benzodioxol-5-yl)cyclopropyl]carbonyl}amino)-7-methoxy-3,4-dihydro-2H-chromen-2-yl]benzoic acid), read-out: EC50 (with co-corrector)
[7] = CSE-HRP, with co-corrector (2 μM)

T1 sequence (P13569 with tags, fused parts or gaps DEL508-508): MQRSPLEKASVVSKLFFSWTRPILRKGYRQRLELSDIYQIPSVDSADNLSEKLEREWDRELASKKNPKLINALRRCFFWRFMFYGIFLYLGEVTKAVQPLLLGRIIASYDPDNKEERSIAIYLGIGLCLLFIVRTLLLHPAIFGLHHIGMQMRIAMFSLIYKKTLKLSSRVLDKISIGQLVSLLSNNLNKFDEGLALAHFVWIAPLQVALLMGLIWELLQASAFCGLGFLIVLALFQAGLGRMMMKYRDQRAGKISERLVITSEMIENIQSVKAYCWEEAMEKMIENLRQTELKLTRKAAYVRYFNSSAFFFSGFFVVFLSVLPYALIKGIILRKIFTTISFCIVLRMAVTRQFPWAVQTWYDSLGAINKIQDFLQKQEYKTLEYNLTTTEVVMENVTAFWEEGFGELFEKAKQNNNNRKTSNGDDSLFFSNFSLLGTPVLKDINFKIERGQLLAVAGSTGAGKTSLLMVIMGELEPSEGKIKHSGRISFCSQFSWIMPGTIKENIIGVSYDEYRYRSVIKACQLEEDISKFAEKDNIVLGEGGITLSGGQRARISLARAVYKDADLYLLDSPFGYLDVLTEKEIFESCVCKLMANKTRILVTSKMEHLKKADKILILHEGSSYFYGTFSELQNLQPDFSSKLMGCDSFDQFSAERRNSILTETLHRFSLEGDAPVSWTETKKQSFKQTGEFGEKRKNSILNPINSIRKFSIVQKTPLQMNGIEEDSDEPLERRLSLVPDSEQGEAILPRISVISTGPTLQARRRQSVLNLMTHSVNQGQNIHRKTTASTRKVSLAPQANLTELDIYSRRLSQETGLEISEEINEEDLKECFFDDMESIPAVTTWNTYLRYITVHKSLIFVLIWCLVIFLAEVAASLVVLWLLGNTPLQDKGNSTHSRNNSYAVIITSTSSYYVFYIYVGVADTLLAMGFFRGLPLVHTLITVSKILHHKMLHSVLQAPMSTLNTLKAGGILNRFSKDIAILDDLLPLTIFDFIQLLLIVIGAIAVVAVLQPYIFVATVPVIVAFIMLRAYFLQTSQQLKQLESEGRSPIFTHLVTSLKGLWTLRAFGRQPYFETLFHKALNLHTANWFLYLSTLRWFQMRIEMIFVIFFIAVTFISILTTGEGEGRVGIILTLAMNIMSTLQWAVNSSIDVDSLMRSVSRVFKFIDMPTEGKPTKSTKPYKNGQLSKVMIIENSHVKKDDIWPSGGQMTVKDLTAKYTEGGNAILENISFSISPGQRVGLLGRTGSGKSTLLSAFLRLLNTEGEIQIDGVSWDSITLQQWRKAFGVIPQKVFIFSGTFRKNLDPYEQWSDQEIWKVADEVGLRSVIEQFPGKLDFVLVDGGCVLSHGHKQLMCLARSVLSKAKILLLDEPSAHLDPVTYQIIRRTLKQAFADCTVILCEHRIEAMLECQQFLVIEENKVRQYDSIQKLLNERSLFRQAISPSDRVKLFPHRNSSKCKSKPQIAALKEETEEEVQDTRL

Row | EC50 [1] | EC50 [2] | Maximum % activity (with co-corrector) (with co-corrector (2 μM)) | Emax (without co-corrector) | Emax [3] | Maximum % activity (with co-corrector) [4] | EC50 [5] | EC50 [6] | Maximum % activity (with co-corrector) [7] | Emax (CSE-HRP, without co-corrector) | SMILES
1 | 1000 to 10000 nM | 1000 to 10000 nM | +++ (≥350) | > 200% |  |  |  |  |  |  | COc1ccc(C(C)(C)C)cc1CN[C@H]1[C@H](C(C)(C)C)[C@@H](C(=O)O)N(C(=O)[C@@H](C)[C@@H]2CCCCO2)[C@H]1c1ccccc1 (relative stereo) [Example I-195]
2 | 1000 to 10000 nM | 1000 to 10000 nM |  |  | > 200% | +++ (≥350) |  |  |  |  | COc1ccc(C(C)(C)C)cc1CN[C@H]1[C@H](C(C)(C)C)[C@@H](C(=O)O)N(C(=O)C2CCO2)[C@H]1c1ccccc1 (stereo partly shown) [II-443]
3 | 1000 to 10000 nM | < 1000 nM |  |  | > 200% | +++ (≥350) |  |  |  |  | COc1ncc(Br)cc1CN[C@H]1[C@H](C(C)(C)C)[C@@H](C(=O)O)N(C(=O)[C@@H]2CCCO2)[C@H]1c1ccccc1C(C)C [II-594]
4 | < 1000 nM | < 1000 nM |  |  | > 200% | +++ (≥350) |  |  |  |  | COc1ccc(C(C)(C)C)cc1CN[C@H]1[C@H](C(C)(C)C)[C@@H](C(=O)O)N(C(=O)c2ccc(Oc3ccccn3)cc2)[C@H]1c1cccnc1N(C)C [II-466]
5 |  |  |  |  |  |  | 1000 to 10000 nM | 1000 to 10000 nM | +++ (≥350) | 100 to 200% | COc1cc(Cl)ccc1CN[C@H]1[C@H](C(C)(C)C)[C@@H](C(=O)O)N(C(=O)[C@H](OC)c2ccccc2)[C@H]1c1cccnc1N(C)C (racemic) [II-47]
6 |  |  |  |  |  |  | 1000 to 10000 nM | 1000 to 10000 nM | ++ (≥150 and <350) | < 100% | CC(C)(C)[C@H]1[C@H](NCc2cc(Cl)ccc2OCC2CC2)[C@H](c2ccccc2)N(C(=O)C2CCCCC2)[C@@H]1C(=O)O [II-139]
7 |  |  |  |  |  |  | 1000 to 10000 nM | 1000 to 10000 nM | +++ (≥350) | 100 to 200% | COc1ccc(C(C)(C)C)cc1CN[C@H]1[C@H](C(C)(C)C)[C@@H](C(=O)O)N(C(=O)C2COC(C(C)C)OC2)[C@H]1c1ccccc1 (stereo partly shown) [II-216]
8 | 1000 to 10000 nM | < 1000 nM | +++ (≥350) | > 200% |  |  |  |  |  |  | COc1ccc(C(F)(F)F)cc1CN[C@H]1[C@H](C(C)(C)C)[C@@H](C(=O)O)N(C(=O)OC(C)C)[C@H]1c1ccccc1C(C)C [Example 83, (2S,3S,4S,5S)-3-tert-butyl-4-({[2-methoxy-5-(trifluoromethyl)phenyl]methyl}amino)-1-{[(propan-2-yl)oxy]carbonyl}-5-[2-(propan-2-yl)phenyl]pyrrolidine-2-carboxylic acid]
9 | > 10000 nM | 1000 to 10000 nM | ++ (≥150 and <350) |  | < 100% |  |  |  |  |  | CC(C)(C)[C@H]1[C@H](NCc2ccc(C(F)(F)F)cc2F)[C@H](c2ccccc2)N(C(=O)C2CCCCC2)[C@@H]1C(=O)O [III-136]
10 |  |  |  |  |  |  | 1000 to 10000 nM | < 1000 nM | +++ (≥350) | > 200% | COc1ccc(C(C)(C)C)cc1CN[C@H]1[C@H](C2(C)CC2)[C@@H](C(=O)O)N(C(=O)C2CCCCC2)[C@H]1c1ccccc1 [II-302]
11 |  |  |  |  |  |  | 1000 to 10000 nM | < 1000 nM | +++ (≥350) | 100 to 200% | COc1cc(C(F)(F)F)ccc1CN[C@H]1[C@H](C(C)(C)C)[C@@H](C(=O)O)N(C(=O)C2CCCC(F)(F)C2)[C@H]1c1cccnc1OC (relative stereo) [Example I-257]
12 |  |  |  |  |  |  | 1000 to 10000 nM | 1000 to 10000 nM | +++ (≥350) | 100 to 200% | COc1cc(C(F)(F)F)ccc1CN[C@@H]1[C@@H](C(C)(C)C)[C@H](C(=O)O)N(C(=O)[C@@H]2CCCCO2)[C@@H]1c1ccccc1 (racemic) [II-49]
13 |  |  |  |  |  |  | 1000 to 10000 nM | 1000 to 10000 nM | +++ (≥350) | 100 to 200% | COc1cc(C(F)(F)F)ccc1CN[C@H]1[C@H](C(C)(C)C)[C@@H](C(=O)O)N(C(=O)[C@@H](OC)c2ccccc2)[C@H]1c1ccccc1 [II-65]
